The text below walks through data of the PolyMetriX glass transition set.

Molecules are shown by their SMILES.

For `*C(=O)Nc1ccc(Oc2ccccc2-c2ccccc2Oc2ccc(NC(=O)c3ccc4c(c3)C(=O)N(c3ccc(Cc5ccc(N6C(=O)c7ccc(*)cc7C6=O)cc5)cc3)C4=O)cc2)cc1` (repeat unit), the glass transition temperature was determined as 240.00 °C. For `*C(=O)Nc1ccc(Oc2ccccc2-c2ccccc2Oc2ccc(NC(=O)c3ccc4c(c3)C(=O)N(c3ccc(N5C(=O)c6ccc(*)cc6C5=O)cc3)C4=O)cc2)cc1` (repeat unit), the glass transition temperature stood at 268.00 °C. For `*C(=O)Nc1ccc(Oc2ccccc2-c2ccccc2Oc2ccc(NC(=O)c3ccc4c(c3)C(=O)N(c3ccc(Oc5ccc(S(=O)(=O)c6ccc(Oc7ccc(N8C(=O)c9ccc(*)cc9C8=O)cc7)cc6)cc5)cc3)C4=O)cc2)cc1` (repeat unit), the glass transition temperature turned out to be 236.00 °C. `*C(=O)Nc1ccc(Oc2ccccc2-c2ccccc2Oc2ccc(NC(=O)c3ccc4c(c3)C(=O)N(c3ccc(Oc5ccccc5-c5ccccc5Oc5ccc(N6C(=O)c7ccc(*)cc7C6=O)cc5)cc3)C4=O)cc2)cc1` (repeat unit) showed a glass transition temperature of 227.00 °C. In turn, `*C(=O)Nc1ccc(S(=O)(=O)c2ccc(N3C(=O)CC(N4C(=O)c5ccc(*)cc5C4=O)C3=O)cc2)cc1` (repeat unit) came in with a glass transition temperature of 145.00 °C.

As to `*C(=O)Nc1ccc(S(=O)(=O)c2ccc(NC(=O)c3ccc(N4C(=O)c5ccc(*)cc5C4=O)cc3)cc2)cc1` (repeat unit), the glass transition temperature turned out to be 252.00 °C. In turn, `*C(=O)Nc1ccc(S(=O)(=O)c2ccc(NC(=O)c3ccc4[nH]c(-c5cc(-c6nc7cc(*)ccc7[nH]6)cc(N6C(=O)c7ccccc7C6=O)c5)nc4c3)cc2)cc1` (repeat unit) showed a glass transition temperature of 325.00 °C. `*C(=O)Nc1ccc(S(=O)(=O)c2ccc(NC(=O)c3ccc4[nH]c(-c5cccc(-c6nc7cc(*)ccc7[nH]6)c5)nc4c3)cc2)cc1` (repeat unit) yielded a glass transition temperature of 312.00 °C. Then `*C(=O)Nc1ccc(S(=O)(=O)c2ccc(NC(=O)c3ccc4c(c3)C(=O)N(c3cc(-c5nc6ccccc6o5)cc(N5C(=O)c6ccc(*)cc6C5=O)c3)C4=O)cc2)cc1` (repeat unit), with 367.00 °C; and `*C(=O)Nc1ccc(S(=O)(=O)c2ccc(NC(=O)c3ccc4c(c3)C(=O)N(c3ccc(Oc5ccc(N6C(=O)c7ccc(*)cc7C6=O)cc5)cc3)C4=O)cc2)cc1` (repeat unit), with 275.00 °C. `*C(=O)Nc1ccc(S(=O)(=O)c2ccc(NC(=O)c3ccc4c(c3)C(=O)N(c3cccc(N5C(=O)c6ccc(*)cc6C5=O)c3)C4=O)cc2)cc1` (repeat unit) registered a glass transition temperature of 342.00 °C.

On to `*C(=O)Nc1ccc(Sc2ccc(NC(=O)c3ccc4c(c3)C(=O)N(c3ccc(Oc5ccc(C6(c7ccc(Oc8ccc(N9C(=O)c%10ccc(*)cc%10C9=O)cc8)cc7)NC(=O)c7ccccc76)cc5)cc3)C4=O)cc2)cc1` (repeat unit), for which the glass transition temperature was determined as 312.00 °C.

`*C(=O)Nc1ccc2c(c1)-c1cc(NC(=O)c3ccc4c(c3)C(=O)N(c3cccc(P(=O)(c5ccccc5)c5cccc(N6C(=O)c7ccc(*)cc7C6=O)c5)c3)C4=O)ccc1C2` (repeat unit): the glass transition temperature was found to be 248.00 °C. Then `*C(=O)Nc1cccc(C(=O)Nc2cccc(NC(=O)c3ccc4[nH]c(-c5cccc(-c6nc7cc(*)ccc7[nH]6)c5)nc4c3)c2)c1` (repeat unit), with 331.00 °C; and `*C(=O)Nc1cccc(C(=O)c2cccc(NC(=O)c3ccc4c(c3)C(=O)N(c3ccc(-c5sc(-c6ccc(N7C(=O)c8ccc(*)cc8C7=O)cc6)c(-c6ccccc6)c5-c5ccccc5)cc3)C4=O)c2)c1` (repeat unit), with 308.00 °C.

`*C(=O)Nc1cccc(NC(=O)c2ccc(N3C(=O)c4ccc(*)cc4C3=O)cc2)c1` (repeat unit): the glass transition temperature amounted to 240.00 °C.

`*C(=O)Nc1cccc(NC(=O)c2ccc3[nH]c(-c4cc(-c5nc6cc(*)ccc6[nH]5)cc(N5C(=O)c6ccccc6C5=O)c4)nc3c2)c1` (repeat unit): the glass transition temperature stood at 304.00 °C. Next, `*C(=O)Nc1cccc(NC(=O)c2ccc3[nH]c(-c4cccc(-c5nc6cc(*)ccc6[nH]5)c4)nc3c2)n1` (repeat unit): 302.00 °C.

`*C(=O)Nc1cccc(NC(=O)c2ccc3c(c2)C(=O)N(c2cc(-c4nc5ccccc5o4)cc(N4C(=O)c5ccc(*)cc5C4=O)c2)C3=O)n1` (repeat unit) yielded a glass transition temperature of 365.00 °C. As to `*C(=O)Nc1cccc(NC(=O)c2ccc3c(c2)C(=O)N(c2cc(-c4nc5ccccc5s4)cc(N4C(=O)c5ccc(*)cc5C4=O)c2)C3=O)n1` (repeat unit), the glass transition temperature turned out to be 358.00 °C.

Compound `*C(=O)Nc1cccc(NC(=O)c2ccc3c(c2)C(=O)N(c2cccc(N4C(=O)c5ccc(*)cc5C4=O)c2)C3=O)n1` (repeat unit) came in with a glass transition temperature of 339.00 °C. Next, `*C(=O)Nc1cccc(NC(=O)c2ccc3c(c2)C(=O)N(c2cccc(P(=O)(c4ccccc4)c4cccc(N5C(=O)c6ccc(*)cc6C5=O)c4)c2)C3=O)n1` (repeat unit): 156.00 °C. Next, `*C(=O)Nc1cccc(NC(=O)c2cccc(NC(=O)c3ccc(-c4nc5cc(*)ccc5[nH]4)cc3)c2)c1` (repeat unit): 292.00 °C. The compound `*C(=O)Nc1cccc(Oc2ccc(C(=O)c3ccc(Oc4cccc(NC(=O)c5ccc(*)nc5)c4)cc3)cc2)c1` (repeat unit) displayed a glass transition temperature of 154.00 °C. `*C(=O)Nc1cccc(S(=O)(=O)c2cccc(NC(=O)c3ccc4c(c3)C(=O)N(c3cc(-c5nnc(-c6ccccn6)o5)cc(N5C(=O)c6ccc(*)cc6C5=O)c3)C4=O)c2)c1` (repeat unit) registered a glass transition temperature of 173.00 °C.

Compound `*C(=O)Nc1cccc(S(=O)(=O)c2cccc(NC(=O)c3ccc4c(c3)C(=O)N(c3ccc(-c5sc(-c6ccc(N7C(=O)c8ccc(*)cc8C7=O)cc6)c(-c6ccccc6)c5-c5ccccc5)cc3)C4=O)c2)c1` (repeat unit) had a glass transition temperature of 320.00 °C.

With `*C(=O)Nc1ccccc1NC(=O)c1ccc(N2C(=O)c3ccc(*)cc3C2=O)cc1` (repeat unit), the glass transition temperature was 215.00 °C. `*C(=O)c1ccc(N(*)C)cc1` (repeat unit) yielded a glass transition temperature of 197.00 °C. The compound `*C(=O)c1ccc(N(*)CCCCC)cc1` (repeat unit) returned a glass transition temperature of 83.50 °C.

In turn, `*C(=O)c1ccc(N(*)CCCCCCC)cc1` (repeat unit) gave a glass transition temperature of 45.90 °C. Take `*C(=O)c1ccc(N(*)CCCCCCCC)cc1` (repeat unit): the glass transition temperature came to 30.00 °C. Next, `*C(=O)c1ccc2c(c1)C(=O)N(c1cccc(Nc3nc(Nc4cccc(N5C(=O)c6ccc(*)cc6C5=O)c4)nc(N(C)C)n3)c1)C2=O` (repeat unit): 294.00 °C; `*CCCCCCN1C(=O)c2ccc(C(=O)Nc3ccc(S(=O)(=O)c4ccc(NC(=O)c5ccc6c(c5)C(=O)N(*)C6=O)cc4)cc3)cc2C1=O` (repeat unit): 198.00 °C; `*CCCCCCN1C(=O)c2ccc(C(=O)Nc3ccc(S(=O)(=O)c4cccc(NC(=O)c5ccc6c(c5)C(=O)N(*)C6=O)c4)cc3)cc2C1=O` (repeat unit): 190.00 °C.

`*CCCCCOc1cccc(NC(=O)c2ccc(C(=O)Nc3cccc(O*)c3)cc2)c1` (repeat unit) had a glass transition temperature of 135.00 °C. Next, `*CCCCOc1ccc(C(=O)Nc2cccc(P(=O)(c3ccccc3)c3cccc(NC(=O)c4ccc(O*)cc4)c3)c2)cc1` (repeat unit): 191.00 °C; `*CCOCCOCCOc1cccc(NC(=O)c2cccc(C(=O)Nc3cccc(O*)c3)c2)c1` (repeat unit): 111.00 °C; `*CCOCCOc1cccc(NC(=O)c2cccc(C(=O)Nc3cccc(O*)c3)c2)c1` (repeat unit): 128.50 °C. Then `*Nc1ccc(*)cc1C` (repeat unit), with -71.40 °C; and `*Nc1ccc(*)cc1OC` (repeat unit), with 90.00 °C; and `*Nc1ccc(*)cc1OCCCCCCCCCC` (repeat unit), with 77.00 °C. As for `*Nc1ccc(*)cc1OCCCCCCCCCCCC` (repeat unit), the glass transition temperature was 87.00 °C. As to `*Nc1ccc(*)cc1OCCCCCCCCCCOc1ccc(C2CCC(CCCCC)CC2)cc1` (repeat unit), the glass transition temperature was 64.50 °C. Regarding `*Nc1cccc(NC(=O)c2cc(NC(=O)C34CC5CC(CC(C5)C3)C4)cc(C(*)=O)c2)c1` (repeat unit), the glass transition temperature is 365.00 °C. Then `*Nc1cccc2c(NC(=O)c3ccc(C(*)=O)cc3)cccc12` (repeat unit), with 305.00 °C. Then `*Oc1ccc(C(=O)Nc2ccc(S(=O)(=O)c3ccc(NC(=O)c4ccc(Oc5nc(*)nc(Sc6ccccc6)n5)cc4)cc3)cc2)cc1` (repeat unit), with 310.00 °C; and `*Oc1ccc(C(=O)c2ccc(C(=O)c3ccc(*)c(C(C)C)c3)cc2)cc1C` (repeat unit), with 149.00 °C; and `*Oc1ccc(Oc2ccc(C(=O)c3ccc(C(=O)c4ccc(*)cc4)cc3)cc2)cc1-c1ccccc1` (repeat unit), with 166.00 °C. Next, `*Oc1cccc(C(=O)Nc2ccc(S(=O)(=O)c3ccc(NC(=O)c4cccc(Oc5nc(*)nc(Sc6ccccc6)n5)c4)cc3)cc2)c1` (repeat unit): 304.00 °C; `*c1ccc(S(=O)(=O)c2ccc(NC(=O)c3cccc(C(=O)Nc4ccc(S(=O)(=O)c5ccc(-n6c(=O)c7cc8c(=O)n(*)c(=O)c8cc7c6=O)cc5)cc4)c3)cc2)cc1` (repeat unit): 286.00 °C. Regarding `*c1cccc(C(=O)Nc2cccc(S(=O)(=O)c3cccc(NC(=O)c4cccc(N5C(=O)c6ccc(-c7cccc8c7C(=O)N(*)C8=O)cc6C5=O)c4)c3)c2)c1` (repeat unit), the glass transition temperature turned out to be 261.00 °C. As to `*c1cccc(NC(=O)c2cccc(C(=O)Nc3cccc(-n4c(=O)c5cc6c(=O)n(*)c(=O)c6cc5c4=O)c3)c2)c1` (repeat unit), the glass transition temperature was determined as 338.00 °C.
